Test results from US20170015718A1, “PRO-APOPTOTIC RAS AND RAF PEPTIDES” (UNIVERSITE PIERRE ET MARIE CURIE (PARIS 6), priority 2013, published 2017).

Legend:
[1] = test system: colon cancer cell line HCT116; test: Apoptosis of colon cancer cell line HCT116; format: cell-based; conditions: 12.5 μM for 72 h
[2] = test system: Ras/Raf interaction; test: In vitro competition of Ras/Raf interaction (immunoprecipitation from cell lysates, blot); format: binding, Human; conditions: 1.5 mM of peptides, 30 min, room temperature; FIGS. 2A, 2B
Description: FIGS. 2A and 2B show in vitro competition of Ras/Raf interaction. Cells were lysed for 20 min at 4° C. in lysis buffer (50 mM Tris (pH 8), 1% Nonidet P-40, 137 mM NaCl, 1 mM MgCl2, 1 mM CaCl2, 10% glycerol, and protease inhibitor mixture). Lysates (800 μg of protein) were immunoprecipitated with the appropriate Ab overnight at 4° C., and protein A-Sepharose was added for 1 h at 4° C. After washing with 1×TBST (20 mM Tris-HCl (pH 7.5), 150 mM NaCl, 0.05% Tween 20), the Ras/Raf interaction was competed using peptides Mut3DPT-Ras (A) or Mut3DPT-Raf+Mut3DPT-Raf2 (B) at a concentration of 1.5 mM for 30 min at room temperature. After a washing, immunoprecipitates were transferred to nitrocellulose and blotted with the corresponding Ab.
The Ras/Raf interaction was competed using peptides corresponding to the binding site of Ras to Raf and vice versa. Lysates from MDA-MB321 or BC52 cell lines were immunoprecipitated with anti-Ras or anti-Raf Ab, and protein A-Sepharose was added. The Ras/Raf interaction was competed with 1.5 mM of peptides (30 min, room temperature). After washing steps, immunoprecipitates were transferred to nitrocellulose and blotted with the corresponding Ab. Proteins were detected using the ECL system.

[3] = test system: K-Ras mutated cell line SW626; test: Apoptosis by Annexin V-FITC staining, SW626; format: cell-based, Human; conditions: SW626, 100 μM for 24 h; FIG. 3C
Description: FIGS. 3A to 3D show effect of peptides on apoptosis. A) MDA-MB231 cell line (mutated K-Ras) was cultured in the presence of the identified peptides at a concentration of 100 μM for 24 h. Apoptosis was detected by Annexin V-FITC staining and analyzed by flow cytometry. B) MDA-MB231 cell line was cultured as above, but to a concentration of 10 or 25 μM peptides. Apoptosis was estimated by annexin V-FITC staining. C) The K-Ras mutated cell line SW626 was cultured and analyzed as in A. D) The wild type K-RAs cell line BC 227 was cultured and analyzed as in A.
Apoptotic cells were detected using Annexin-V (-FITC from BD biosciences) as described by the manufacturer. Briefly, the cells were washed in 1× binding buffer, centrifugated and then resuspended in 200 μl of 1× binding buffer containing Annexin V-FITC (0.1 μg/ml) and PI (0.5 μg/ml). After incubation at room temperature in the dark for 10 min, cells were analyzed by flow cytometry. Data acquired by FACSCalibur (BD biosciences) were analyzed with Cellquest Pro software.

[4] = test system: primary tumor cells of chronic lymphocytic leukemia (CLL); test: Apoptosis of primary tumor cells of chronic lymphocytic leukemia; format: cell-based

VKKKKIKAEIKIHEHKGKKARLDWNTDAAS (chimeric peptide) [Mut3DPT-Raf2]
apoptosis of HCT116 [1]: cause apoptosis

VKKKKIKAEIKIKMSKDGKKKKKKSKTKCVIM (chimeric peptide) [Mut3DPT-Ras]
competition of the Ras/Raf interaction in vitro [2]: able to compete in vitro the interaction Ras/Raf | apoptotic effect [3]: lower level of apoptosis | effect on CLL B and non-B cells [4]: marked effect
